Experimental data published in patent US20180044343A1, “BICYCLIC IMIDAZOLO DERIVATIVE” (Sumitomo Dainippon Pharma Co., Ltd., priority 2015, published 2018).
pIC50: −log10 of the molar value.

Each molecule was assayed against PDE1B (Homo sapiens, UniProt Q01064) (assay: In vitro HTRF PDE1 inhibition assay (PDE1B)). Conditions: not given.
Type: biochemical

Chain of PDE1B (Q01064 whole entry): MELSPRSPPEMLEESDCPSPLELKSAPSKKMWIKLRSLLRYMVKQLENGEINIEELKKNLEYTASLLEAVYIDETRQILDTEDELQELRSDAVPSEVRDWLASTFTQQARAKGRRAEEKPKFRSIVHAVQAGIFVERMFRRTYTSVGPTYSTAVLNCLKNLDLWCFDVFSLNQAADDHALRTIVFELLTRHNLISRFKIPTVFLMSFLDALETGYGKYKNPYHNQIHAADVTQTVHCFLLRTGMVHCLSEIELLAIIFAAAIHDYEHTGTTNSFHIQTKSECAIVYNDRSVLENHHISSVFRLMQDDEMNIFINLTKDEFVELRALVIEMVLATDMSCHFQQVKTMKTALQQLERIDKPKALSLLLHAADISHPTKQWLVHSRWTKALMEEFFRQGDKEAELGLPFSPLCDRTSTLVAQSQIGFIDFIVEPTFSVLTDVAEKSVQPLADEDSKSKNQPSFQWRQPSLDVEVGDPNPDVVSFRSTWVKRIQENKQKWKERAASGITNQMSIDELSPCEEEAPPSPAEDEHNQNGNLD

Row | SMILES | pIC50
1 | Cc1ccc([C@H]2CCCN2c2nn3c(C(C)C)ncc3c(=O)n2C)cn1 [Example 216, 3-Methyl-2-[(2R)-2-(6-methylpyridin-3-yl)pyrrolidin-1-yl]-7-(propan-2-yl)imidazo[5,1-f][1,2,4]triazin-4(3H)-one] | > 6.00

Same assay, conditions: in vitro PDE1B HTRF Assay; read-out: IC50

Row | SMILES | pIC50
2 | Cc1ccc([C@@H]2CCCN2c2nn3c(C(C)C)ncc3c(=O)n2C)cn1 [Example 217, 3-Methyl-2-[(2S)-2-(6-methylpyridin-3-yl)pyrrolidin-1-yl]-7-(propan-2-yl)imidazo[5,1-f][1,2,4]triazin-4(3H)-one] | 5.00 to 6.00
3 | COCCN1CCCN(c2nn3c(C4CCOCC4)ncc3c(=O)n2C)CC1 [Example 220, 2-[4-(2-Methoxyethyl)-1,4-diazepan-1-yl]-3-methyl-7-(tetrahydro-2H-pyran-4-yl)imidazo[5,1-f][1,2,4]triazin-4(3H)-one] | 4.00 to 5.00
4 | COCC(=O)N1CCCN(c2nn3c(C4CCOCC4)ncc3c(=O)n2C)CC1 [Example 221, 2-[4-(Methoxyacetyl)-1,4-diazepan-1-yl]-3-methyl-7-(tetrahydro-2H-pyran-4-yl)imidazo[5,1-f][1,2,4]triazin-4(3H)-one] | 5.00 to 6.00
5 | CN(C)CC(=O)N1CCCN(c2nn3c(C4CCOCC4)ncc3c(=O)n2C)CC1 [Example 222, 2-{4-[(Dimethylamino)acetyl]-1,4-diazepan-1-yl}-3-methyl-7-(tetrahydro-2H-pyran-4-yl)imidazo[5,1-f][1,2,4]triazin-4(3H)-one] | 4.00 to 5.00
6 | CC(C)c1ncc2c(=O)n(C)c(COc3ccc(Cl)cc3)nn12 [Example 223, 2-[(4-Chlorophenoxy)methyl]-3-methyl-7-(propan-2-yl)imidazo[5,1-f][1,2,4]triazin-4(3H)-one] | 5.00 to 6.00
7 | Cc1ccc(OCc2nn3c(C(C)C)ncc3c(=O)n2C)cc1 [Example 225] | 5.00 to 6.00
8 | Cc1ccc(OCc2nn3c(C4CCCC4)ncc3c(=O)n2C)cc1 [Example 227] | 5.00 to 6.00
9 | Cn1c(COc2ccc(F)cc2)nn2c(C3CCCC3)ncc2c1=O [Example 228] | 5.00 to 6.00
10 | CC(C)c1ncc2c(=O)n(C)c(CN3Cc4ccccc4C3=O)nn12 [Example 232] | 5.00 to 6.00
11 | COc1nn2c(C3CCOCC3)ncc2c(=O)n1Cc1cccnc1 [Example 267] | 5.00 to 6.00
12 | COc1nn2c(C3CCOCC3)ncc2c(=O)n1Cc1ccccn1 [Example 268] | 5.00 to 6.00
13 | COc1nn2c(C3CCOCC3)ncc2c(=O)n1CCC(F)(F)F [Example 276] | 5.00 to 6.00
14 | COCCn1c(OCC2CCC(F)(F)CC2)nn2c(C3CCOCC3)ncc2c1=O [Example 277] | 5.00 to 6.00
15 | COCCn1c(OCC2CCC(F)(F)CC2)nn2c(C(C)C)ncc2c1=O [Example 278] | > 6.00
16 | COCCn1c(OCc2ccc(F)cc2)nn2c(C3CCOCC3)ncc2c1=O [Example 279] | > 6.00
17 | COc1nn2c(C3CCOCC3)ncc2c(=O)n1Cc1ccc(C#N)cc1 [Example 280] | 4.00 to 5.00
18 | COc1nn2c(C3CCOCC3)ncc2c(=O)n1Cc1ccncc1 [Example 281] | 5.00 to 6.00
19 | Cn1c(OCCC2(C(F)(F)F)CC2)nn2c(C3CCOCC3)ncc2c1=O [Example 282] | > 6.00
20 | Cn1c(OCC2CCC(OC(F)(F)F)CC2)nn2c(C3CCOCC3)ncc2c1=O (stereo not drawn) [Example 284] | > 6.00
21 | CCn1c(OCC2CCC(OC(F)(F)F)CC2)nn2c(C3CCOCC3)ncc2c1=O (stereo not drawn) [Example 285] | > 6.00
22 | COC[C@H]1CC[C@H](COc2nn3c(C4CCOCC4)ncc3c(=O)n2C)CC1 [Example 286] | > 6.00
23 | CCn1c(OC[C@H]2CC[C@H](COC)CC2)nn2c(C3CCOCC3)ncc2c1=O [Example 287] | > 6.00
24 | CCOC[C@H]1CC[C@H](COc2nn3c(C4CCOCC4)ncc3c(=O)n2CC)CC1 [Example 289] | > 6.00
25 | Cn1c(OC[C@H]2CC[C@H](CO)CC2)nn2c(C3CCOCC3)ncc2c1=O [Example 290] | > 6.00
26 | CCO[C@H]1CC[C@H](COc2nn3c(C4CCOCC4)ncc3c(=O)n2C2CC2)CC1 [Example 291] | > 6.00
27 | Cn1c(OCc2ccc(C(F)(F)F)cc2)nn2c(C3CCOCC3)ncc2c1=O [Example 292] | > 6.00

Results, then the molecule that gave them:

Row | pIC50 | SMILES
28 | > 6.00 | Cc1ccc([C@H]2CCCN2c2nn3c(C(C)C)ncc3c(=O)n2C)nc1 [Example 218, 3-Methyl-2-[(2R)-2-(5-methylpyridin-2-yl)pyrrolidin-1-yl]-7-(propan-2-yl)imidazo[5,1-f][1,2,4]triazin-4(3H)-one]
29 | > 6.00 | Cc1ccc([C@@H]2CCCN2c2nn3c(C(C)C)ncc3c(=O)n2C)nc1 [Example 219, 3-Methyl-2-[(2S)-2-(5-methylpyridin-2-yl)pyrrolidin-1-yl]-7-(propan-2-yl)imidazo[5,1-f][1,2,4]triazin-4(3H)-one]
30 | > 6.00 | CC(C)c1ncc2c(=O)n(C)c(COc3ccc(F)cc3)nn12 [Example 226]
31 | > 6.00 | CC(C)c1ncc2c(=O)n(C)c(CN3CCCc4cc(Cl)ccc43)nn12 [Example 229, 2-[(6-Chloro-3,4-dihydroquinolin-1(2H)-yl)methyl]-3-methyl-7-(propan-2-yl)imidazo[5,1-f][1,2,4]triazin-4(3H)-one]
32 | > 6.00 | CC(C)c1ncc2c(=O)n(C)c(CN(C)c3ccc(C(F)(F)F)cc3)nn12 [Example 230, 3-Methyl-2-({methyl[4-(trifluoromethyl)phenyl]amino}methyl)-7-(propan-2-yl)imidazo[5,1-f][1,2,4]triazin-4(3H)-one]
33 | > 6.00 | Cn1c(CN2Cc3ccccc3C2=O)nn2c(C3CCCC3)ncc2c1=O [Example 231, 7-Cyclopentyl-3-methyl-2-[(1-oxo-1,3-dihydro-2H-isoindol-2-yl)methyl]imidazo[5,1-f][1,2,4]triazin-4(3H)-one]
34 | > 6.00 | Cn1c(CN2CCCc3cc(Cl)ccc32)nn2c(C3CCCC3)ncc2c1=O [Example 233]
35 | > 6.00 | Cn1c(CN2C(=O)c3ccccc3C2=O)nn2c(C3CCCC3)ncc2c1=O [Example 234]
36 | > 6.00 | CN(Cc1nn2c(C3CCCC3)ncc2c(=O)n1C)c1ccc(C(F)(F)F)cc1 [Example 235]
37 | > 6.00 | Cc1ccc(-c2nn3c(C4CCOCC4)ncc3c(=O)n2C)cc1 [Example 236, 3-Methyl-2-(4-methylphenyl)-7-(tetrahydro-2H-pyran-4-yl)imidazo[5,1-f][1,2,4]triazin-4(3H)-one]
38 | > 6.00 | Cc1nn2c(C3CCOCC3)ncc2c(=O)n1CC1CCC(F)(F)CC1 [Example 237, 3-[(4,4-Difluorocyclohexyl)methyl]-2-methyl-7-(tetrahydro-2H-pyran-4-yl)imidazo[5,1-f][1,2,4]triazin-4(3H)-one]
39 | > 6.00 | Cn1c(/C=C/c2ccc(F)cc2)nn2c(C3CCOCC3)ncc2c1=O [Example 240, 2-[(E)-2-(4-Fluorophenyl)ethenyl]-3-methyl-7-(tetrahydro-2H-pyran-4-yl)imidazo[5,1-f][1,2,4]triazin-4(3H)-one]
40 | > 6.00 | Cn1c(CCc2ccc(F)cc2)nn2c(C3CCOCC3)ncc2c1=O [Example 241, 2-[2-(4-Fluorophenyl)ethyl]-3-methyl-7-(tetrahydro-2H-pyran-4-yl)imidazo[5,1-f][1,2,4]triazin-4(3H)-one]
41 | > 6.00 | COc1ccc(CCc2nn3c(C4CCOCC4)ncc3c(=O)n2C)cc1 [Example 243, 2-[2-(4-Methoxyphenyl)ethyl]-3-methyl-7-(tetrahydro-2H-pyran-4-yl)imidazo[5,1-f][1,2,4]triazin-4(3H)-one]
42 | > 6.00 | Cn1c(CCc2ccccn2)nn2c(C3CCOCC3)ncc2c1=O [Example 244, 3-Methyl-2-[2-(pyridin-2-yl)ethyl]-7-(tetrahydro-2H-pyran-4-yl)imidazo[5,1-f][1,2,4]triazin-4(3H)-one]
43 | > 6.00 | Cn1c(OC[C@H]2CC[C@@H](C(F)(F)F)CC2)nn2c(C3CCOCC3)ncc2c1=O [Example 248, 3-methyl-7-(tetrahydro-2H-pyran-4-yl)-2-{[cis-4-(trifluoromethyl)cyclohexyl]methoxy}-imidazo[5,1-f][1,2,4]triazin-4(3H)-one]
44 | > 6.00 | CCO[C@H]1CC[C@@H](COc2nn3c(C4CCOCC4)ncc3c(=O)n2CC)CC1 [Example 250]

Row | pIC50 | SMILES
45 | > 6.00 | CCn1c(OC[C@H]2CC[C@@H](C(F)(F)F)CC2)nn2c(C3CCOCC3)ncc2c1=O [Example 252]
46 | > 6.00 | Cn1c(O[C@H]2CC[C@H](C)CC2)nn2c(C3CCOCC3)ncc2c1=O [Example 254, 3-Methyl-2-[(trans-4-methylcyclohexyl)oxy]-7-(tetrahydro-2H-pyran-4-yl)imidazo[5,1-f][1,2,4]triazin-4(3H)-one]
47 | > 6.00 | CCn1c(COc2ccc(F)cc2)nn2c(C3CCOCC3)ncc2c1=O [Example 259, 3-Ethyl-2-[(4-fluorophenoxy)methyl]-7-(tetrahydro-2H-pyran-4-yl)imidazo[5,1-f][1,2,4]triazin-4(3H)-one]
48 | > 6.00 | CCn1c(COC2CCC(F)(F)CC2)nn2c(C3CCOCC3)ncc2c1=O [Example 260, 2-{[(4,4-Difluorocyclohexyl)oxy]methyl}-3-ethyl-7-(tetrahydro-2H-pyran-4-yl)imidazo[5,1-f][1,2,4]triazin-4(3H)-one]
49 | > 6.00 | COc1nn2c(C(C)C)ncc2c(=O)n1Cc1ccccn1 [Example 262]
50 | > 6.00 | COc1nn2c(C(C)C)ncc2c(=O)n1CC1CCC(F)(F)CC1 [Example 263]
51 | > 6.00 | COc1nn2c(C3CCOCC3)ncc2c(=O)n1Cc1ccc(C)cc1 [Example 264]
52 | > 6.00 | COc1ccc(Cn2c(OC)nn3c(C4CCOCC4)ncc3c2=O)cc1 [Example 265]
53 | > 6.00 | COc1cccc(Cn2c(OC)nn3c(C4CCOCC4)ncc3c2=O)c1 [Example 266]
54 | > 6.00 | COc1nn2c(C3CCOCC3)ncc2c(=O)n1Cc1ccc(F)cn1 [Example 269]
55 | > 6.00 | CCCn1c(OC)nn2c(C3CCOCC3)ncc2c1=O [Example 270]
56 | > 6.00 | COc1nn2c(C3CCOCC3)ncc2c(=O)n1CC(C)C [Example 271]
57 | > 6.00 | COc1nn2c(C3CCOCC3)ncc2c(=O)n1CC1CC1 [Example 272]
58 | > 6.00 | COc1nn2c(C3CCOCC3)ncc2c(=O)n1CC1CCC1 [Example 273]
59 | > 6.00 | COc1nn2c(C3CCOCC3)ncc2c(=O)n1CC1CCCC1 [Example 274]
60 | > 6.00 | COc1nn2c(C3CCOCC3)ncc2c(=O)n1CC1CCCCC1 [Example 275]
